Structures are written as SMILES.

The nature of the data set: Water-solubility test. The format is physicochemical. The protocol:
The hydrophilic metal surface treatment agent (Compound 21) (MW 608.86, 0.32 g) produced in Example 3 was added to ultrapure water (50.09 g), and the mixture was stirred after the water temperature was heated to 60° C.
With respect to even the hydrophilic metal surface treatment agent having an octadecyl group, i.e. n-C18H37, as a long chain hydrocarbon group, an aqueous solution having a concentration of 10.32 mM could be prepared.

On to `CCCCCCCCCCCCCCCCCCSC(=O)CCC(=O)NC(COC(COC(CO)CO)COC(CO)CO)COC(COC(CO)CO)COC(CO)CO` [Compound 21], for which the visible undissolved residue result (0.32 g in ultrapure water 50.09 g, stirred at 60° C., after 3 hours) was “no visible undissolved residue”. Moreover, the “concentration of aqueous solution that could be prepared” value (ultrapure water, 60° C., no surfactant or solubilizing agent) was 10320 µM.

Values taken from patent US11124881B2, “Hydrophilic metal surface treatment agent” (CHEMICAL DENSHI CO., LTD., priority 2019, dated 2021).
